Test results from PMC10608985, “Retention Behavior of Anticancer Thiosemicarbazides in Biomimetic Chromatographic Systems and In Silico Calculations” (Molecules, 2023).

Tests used:
[1] = HPLC lipophilicity on IAM (immobilized artificial membrane, phosphatidylcholine) stationary phase; format: physicochemical; details: pH 7.4; for Log k IAM: Table S2; for log kw IAM: intercept, linear extrapolation to water; for log kw IAM / -S IAM: ACN/20 mM phosphate buffer; for -S IAM: slope of Soczewiński–Wachtmeister equation
Experimental: (§1) For the evaluation of the compounds the following stationary phases were used: C-18; biomimetic, IAM; cholesterol (Chol); immobilized proteins HSA and AGP. For the lipophilicity determination, MeOH (C-18, Chol) or ACN (IAM) were applied as the organic modifiers. The measurements were performed at pH 7.4 of the mobile phase. The regular changes in the retention of all solutes used as organic modifier content in the mobile phase on three studied stationary phases were found. It is expressed by the Soczewiński–Wachtmeister Equation (1):log k = log kw + S (% organic modifier)(1) where log kw—the intercept; S—the slope of regression curve. […] Log kw as well as S parameters are commonly applied as lipophilicity descriptors.
(§2) HPLC measurements were performed using a liquid chromatograph Knauer (Knauer, Berlin, Germany) with a dual pump, a 20 µL simple injection valve, and a UV–visible detector. The compounds were detected under UV light at 280 nm at room temperature. The retention time of an unretained solute (t0) was determined by the injection of a small amount of citric acid dissolved in water.
A Rexchrom IAM.PC.DD2 (12 μm, 100 × 4.6 mm, 300 Å) (Regis Technologies, Morton Grove, IL, USA) column was used as the stationary phase. The compounds were dissolved at a concentration of 0.5 mg × mL^−1 in MeOH. The mobile phases consisted of different volume fractions of ACN and 20 mM phosphate buffer; the aqueous phase maintained a pH = 7.4 (0.02 M KH2PO4, Na2HPO4 and 0.15 M KCl). The acetonitrile concentration ranged from 0.05 to 0.4 (v/v), depending on the structure of compound, at 0.05 intervals (Table S2 in the Supplementary Materials). The flow rate was 1 mL × min^−1.

[2] = HPLC lipophilicity on cholesterol (Chol) stationary phase; format: physicochemical; details: pH 7.4; for Log k Chol: Table S3; for log kw Chol: intercept, linear extrapolation to water; for log kw Chol / -S Chol: MeOH/20 mM acetate buffer; for -S Chol: slope of Soczewiński–Wachtmeister equation
Experimental: as §1, §2
Cogent 4 UDC Cholesterol (150 × 2.1 mm, 4 µm) MicroSolv Technology Corporation (Leland, NC, USA) column was used. The mobile phase consisted of different volume mixtures of MeOH as the organic modifier and 20 mM acetate buffer as the aqueous phase, to obtain pH = 7.4. The concentrations of the organic modifier were in the range from 0.3 to 0.8 (v/v) with step 0.05 or 0.1 (Table S3 in the Supplementary Materials). The flow rate was 0.35 mL × min^−1.

[3] = molecular target: T1, human serum albumin (HSA) (Homo sapiens, UniProt P02768); experiment: HPLC on immobilized HSA column, affinity and % plasma–protein binding; format: in vitro ADME; details: for log K HSA: binding equilibrium constant from calibration curve (Equation 8) of log k HSA; for fraction unbound: human, pH 7.4, % plasma–protein binding converted from log K HSA (Equation 10), read-out: %PPB HSA (converted); for log k HSA: retention on HSA column, 50 mM ammonium acetate pH 7.4 / propan-2-ol 85/15 (v/v)
T1 construct: purchased Chiralpac
Experimental: (§3) Measurements on HSA and AGP immobilized protein columns were carried out with […] isopropanol content in the aqueous mobile phase.
(§4) The standard calibration curve was used to predict log K values (K—binding equilibrium constant) of investigated compounds to HSA and AGP. Next, the log K values were converted into a percentage of plasma–protein binding (%PPB) of the compounds (Table 2). […] It is the lowest for compound 16 with -NO2 substituent, unsubstituted compound 1, and fluorine derivatives 2 and 9. In a group of […] derivatives in the same position of the phenyl ring, the %PPB to AGP increases with the increase in the atomic weight of the halogen atom and the lipophilicity of the molecule.
as §2
(§5) A human serum albumin (HSA) immobilized on the 5 µm silica gel column 100 × 3 mm (Chiralpac) and an α1-acid glycoprotein (AGP) immobilized on the 5 µm silica gel column 100 × 4 mm (Chiralpac) were used. The compounds were dissolved at 0.5 mg/mL concentration in 50% propan-2-ol and ammonium acetate solution (pH = 7.4) mixtures for HSA measurements. The mobile phase was composed of 50 mM ammonium acetate solution (pH = 7.4) and propan-2-ol at 85/15 (v/v) for AGP, respectively. The flow of mobile phases was 0.5 mL×min^−1. Log k values for the selected mobile phase were determined for all studied compounds and standard substances. The % protein plasma binding (% PPB) values were calculated from the calibration curve according to Valko et al..
(§6) Calibration of the protein columns: The column performance check and the calibration check were performed before measurements. The racemic mixture of warfarin was used for their performance evaluation. The following calibration set of drugs was applied: bromazepam, carbamazepine, diclofenac, nicardipine, nizatidine, piroxicam for HSA and bromazepam, chlorpromazine, imipramine, nicardipine, nizatidine, propranolol, and warfarin for AGP. The analytical standards were purchased from Sigma Aldrich Steinhen, Steinheim am Albuch, Germany). The drugs were dissolved at 0.5 mg/mL concentration in 50% propan-2-ol and ammonium acetate solution mixtures (pH = 7.4). The obtained log k values from HPLC were plotted against the log K values (K—binding equilibrium constant, log K—linearized PPB) based on the literature data for plasma–protein binding (%, PPB). The following relationships were obtained: log KHSA = 0.2513 (±0.0984) + 1.0525 (±0.1171) log k HSA(8) n=6, R=0.9761, R^2 = 0.9528, Radj2 = 0.9410, s = 0.1948 log KAGP = 0.1733 (±0.0574) + 0.8902 (±0.0787) log k AGP(9) n=7, R=0.9810, R^2 = 0.9623, Radj2 = 0.9548, s = 0.1113
(§7) Log K values were converted into %PPB using the following equation [15]:(10) %PPB=101×10^logK/1+10^logK

[4] = test system: α1-acid glycoprotein (AGP); experiment: HPLC on immobilized AGP column, affinity and % plasma–protein binding; format: in vitro ADME, human; details: for log K AGP: binding equilibrium constant from calibration curve (Equation 9) of log k AGP; for fraction unbound: human, pH 7.4, % plasma–protein binding converted from log K AGP (Equation 10), read-out: %PPB AGP (converted); for log k AGP: retention on AGP column, 50 mM ammonium acetate pH 7.4 / propan-2-ol 85/15 (v/v)
Experimental: as §3, §4, §2, §5, §6, §7

[5] = parameters: method as in Kozyra et al. [31]; details: MeOH/20 mM acetate buffer, pH 7.4, ref Kozyra et al. [31], cited from earlier work; for log kw C-18: intercept of Soczewiński–Wachtmeister equation (water as mobile phase); for -S C-18: slope of Soczewiński–Wachtmeister equation

T1 sequence (P02768 25-609): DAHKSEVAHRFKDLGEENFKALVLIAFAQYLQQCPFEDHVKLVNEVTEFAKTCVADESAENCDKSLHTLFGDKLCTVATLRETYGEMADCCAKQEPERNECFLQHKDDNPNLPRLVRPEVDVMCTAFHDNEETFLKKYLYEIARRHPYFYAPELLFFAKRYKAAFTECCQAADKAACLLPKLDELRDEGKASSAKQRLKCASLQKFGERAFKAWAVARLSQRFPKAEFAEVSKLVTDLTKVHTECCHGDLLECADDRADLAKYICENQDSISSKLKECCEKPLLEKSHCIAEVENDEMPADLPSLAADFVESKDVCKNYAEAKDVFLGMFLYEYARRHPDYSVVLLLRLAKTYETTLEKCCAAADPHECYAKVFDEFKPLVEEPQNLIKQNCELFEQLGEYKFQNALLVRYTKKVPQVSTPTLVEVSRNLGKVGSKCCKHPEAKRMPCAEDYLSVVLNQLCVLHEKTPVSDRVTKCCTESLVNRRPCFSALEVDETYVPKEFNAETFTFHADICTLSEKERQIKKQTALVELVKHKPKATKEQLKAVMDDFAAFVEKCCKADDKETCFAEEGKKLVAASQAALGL

Structure (SMILES)	Log k IAM ([1]; ACN 0.15 v/v in mobile phase)	Log k IAM ([1]; ACN 0.20 v/v in mobile phase)	Log k IAM ([1]; ACN 0.25 v/v in mobile phase)	Log k IAM ([1]; ACN 0.30 v/v in mobile phase)	Log k IAM ([1]; ACN 0.35 v/v in mobile phase)	log kw IAM [1]	-S IAM [1]	Log k Chol ([2]; MeOH 0.45 v/v in mobile phase)	Log k Chol ([2]; MeOH 0.50 v/v in mobile phase)	Log k Chol ([2]; MeOH 0.60 v/v in mobile phase)	Log k Chol ([2]; MeOH 0.80 v/v in mobile phase)	log kw Chol [2]	-S Chol [2]	log K HSA [3]	log k HSA [3]	log K AGP [4]	fraction unbound [4]	log k AGP [4]	log kw C-18 [5]	-S C-18 [5]	other results
O=C(COc1ccccc1)NNC(=S)Nc1ccccc1Cl [Compound 3]	0.794	0.515	0.291	-0.138	-0.209	1.5588	5.2422	0.461	0.198	-0.068	-1.020	2.3437	4.1573	1.2059	0.9070	0.5523	0.211	0.4257	2.3929	4.5312	Log k IAM ([1]; ACN 0.10 v/v in mobile phase): 1.022; Log k Chol ([2]; MeOH 0.30 v/v in mobile phase): 1.024; Log k Chol ([2]; MeOH 0.35 v/v in mobile phase): 0.917; Log k Chol ([2]; MeOH 0.40 v/v in mobile phase): 0.759; fraction unbound [3]: 0.049
O=C(COc1ccccc1)NNC(=S)Nc1ccc(I)cc1 [Compound 12]	1.352	0.951	0.655	0.141	-0.016	2.3341	6.8364	1.049	0.685	0.404	-0.783	3.3300	5.0829	2.1778	1.8304	0.8378	0.118	0.7465	2.9681	4.8352	Log k IAM ([1]; ACN 0.40 v/v in mobile phase): -0.358; Log k Chol ([2]; MeOH 0.40 v/v in mobile phase): 1.303; Log k Chol ([2]; MeOH 0.70 v/v in mobile phase): -0.214
O=C(COc1ccccc1)NNC(=S)Nc1cccc(I)c1 [Compound 8]	1.304	0.952	0.573	0.088	-0.074	2.3083	6.9157	1.026	0.834	0.522	-0.984	3.7019	5.6623	2.1342	1.7890	0.8556	0.114	0.7664	3.0072	4.9651	Log k IAM ([1]; ACN 0.40 v/v in mobile phase): -0.404; Log k Chol ([2]; MeOH 0.40 v/v in mobile phase): 1.443; Log k Chol ([2]; MeOH 0.70 v/v in mobile phase): -0.165
O=C(COc1ccccc1)NNC(=S)Nc1ccccc1I [Compound 4]	0.893	0.642	0.451	-0.029	-0.138	1.7099	5.3942	0.519	0.244	-0.037	-0.938	2.3754	4.1215	1.5037	1.1899	0.6707	0.168	0.5588	2.4824	4.4182	Log k IAM ([1]; ACN 0.10 v/v in mobile phase): 1.158; Log k Chol ([2]; MeOH 0.30 v/v in mobile phase): 1.105; Log k Chol ([2]; MeOH 0.35 v/v in mobile phase): 0.974; Log k Chol ([2]; MeOH 0.40 v/v in mobile phase): 0.747; fraction unbound [3]: 0.021

Continued, in another order:

Log k IAM ([1]; ACN 0.15 v/v in mobile phase)	Log k IAM ([1]; ACN 0.20 v/v in mobile phase)	Log k IAM ([1]; ACN 0.25 v/v in mobile phase)	Log k IAM ([1]; ACN 0.30 v/v in mobile phase)	Log k IAM ([1]; ACN 0.35 v/v in mobile phase)	log kw IAM [1]	-S IAM [1]	Log k Chol ([2]; MeOH 0.45 v/v in mobile phase)	Log k Chol ([2]; MeOH 0.50 v/v in mobile phase)	Log k Chol ([2]; MeOH 0.60 v/v in mobile phase)	Log k Chol ([2]; MeOH 0.80 v/v in mobile phase)	log kw Chol [2]	-S Chol [2]	log K HSA [3]	log k HSA [3]	log K AGP [4]	fraction unbound [4]	log k AGP [4]	Structure (SMILES)	log kw C-18 [5]	-S C-18 [5]	other results
1.494	1.133	0.710	0.154	-0.027	2.6121	7.6211	1.095	0.716	0.574	-0.783	3.4243	5.1337	2.2183	1.8689	0.8829	0.107	0.7971	O=C(COc1ccccc1)NNC(=S)Nc1cc(Cl)ccc1Cl [Compound 14]	3.7050	5.6376	Log k IAM ([1]; ACN 0.40 v/v in mobile phase): -0.366; Log k Chol ([2]; MeOH 0.70 v/v in mobile phase): -0.138
0.809	0.533	0.278	-0.130	-0.258	1.6606	5.6500	0.758	0.405	0.062	-1.016	3.0227	5.0400	1.5246	1.2098	0.7514	0.142	0.6494	O=C(COc1ccccc1)NNC(=S)Nc1cccc2ccccc12 [Compound 18]	2.6769	4.6919	Log k IAM ([1]; ACN 0.10 v/v in mobile phase): 1.105; Log k Chol ([2]; MeOH 0.30 v/v in mobile phase): 1.494; Log k Chol ([2]; MeOH 0.35 v/v in mobile phase): 1.296; Log k Chol ([2]; MeOH 0.40 v/v in mobile phase): 1.025; fraction unbound [3]: 0.019
